This is an account of results in US20150314007A1, “LINKER-PAYLOAD MOLECULE CONJUGATES” (GLYKOS FINLAND OY, priority 2012, published 2015).

What is called pIC50 is −log10 of the IC50, conventionally taken in molar units.

pIC50: −log10 of the molar value. Where a SMILES comes first, the peptide text is derived from it. [ ]: non-standard residue; d: D form. The star is where a group is joined. Dolaproine = CO[C@@H]([C@@H]1CCCN1)[C@@H](C)C(=O)O; Dil = CC[C@H](C)[C@H](NC)[C@@H](CC(=O)O)OC; Doe = c1ccc(C[C@H](N*)c2nccs2)cc1; NMeV = CN[C@H](C(=O)O)C(C)C

The data set has as its system Human ovarian cancer cell line SKOV-3. In words: In vitro cytotoxicity, SKOV-3 cell viability (PrestoBlue). To be noted: for cytotoxicity compared with 2 (monomethyldolastatin 10): SKOV-3; for cytotoxicity compared with 1 (MMAF): SKOV-3, applied to the cell culture medium.
Where [1] appears, read: SKOV-3, 96 h, concentration range wherein viability falls to 50%, measured range 1 nM-10 μM.

Procedure: Human ovarian cancer cell line SKOV-3 was from the ATCC (Manassas, Va., USA). The cells were grown according to the manufacturer's recommendations. Log phase cultures were collected and 5000 cells/well were seeded onto 96-well plates and incubated for 24 h. Serial dilutions of test molecules from a stock solution of 100 μM in 10% DMSO were made in cell culture medium, added to cells (maximum concentration of dimethylsulphoxide was 1%) and cultures were incubated further for 96 h. Cell viability was evaluated using PrestoBlue cell viability reagent (Life Technologies, Carlsbad, Calif., USA) according to the manufacturer's instructions. Cells were incubated for 2 h, and dye reduction was measured by absorbance at 570 nm. The compounds were assayed 1-2 times in triplicate.

Where the note is “Homo sapiens, SK-OV-3, 96 h”, `CCC(C)C(C(CC(=O)N1CCCC1C(OC)C(C)C(=O)NC(Cc1ccccc1)C(=O)O)OC)N(C)C(=O)C(NC(=O)C(C(C)C)N(C)CC(O)C(O)C(OC1OC(CO)C(OC2OC(CO)C(O)C(O)C2O)C(O)C1O)C(O)CO)C(C)C` [Compound 10, N-{4-O-[4-O-(α-D-galactopyranosyl)-β-D-galactopyranosyl]-D-glucosyl}-MMAF] gave a pIC50 of 5.00 to 6.00. As for `CC[C@H](C)[C@@H]([C@@H](CC(=O)N1CCC[C@H]1[C@H](OC)[C@@H](C)C(=O)N[C@@H](Cc1ccccc1)C(=O)O)OC)N(C)C(=O)[C@@H](NC(=O)[C@@H](NC)C(C)C)C(C)C` [Compound 1, Monomethylauristatin F, reference compound] (HELM PEPTIDE1{[meV].V.[CC[C@H](C)[C@@H]([C@@H](CC(=O)[*:2])OC)N(C)[*:1]].[CO[C@H]([C@@H](C)C(=O)[*:2])[C@@H]1CCCN1[*:1]].F}$$$$V2.0), under setting [1], the negative logarithm of the IC50 (pIC50) is 6.00 to 7.00. Take `CCC(C)C(C(CC(=O)N1CCCC1C(OC)C(C)C(=O)NC(Cc1ccccc1)c1nccs1)OC)N(C)C(=O)C(NC(=O)C(C(C)C)N(C)CC(O)C(O)C(O)C(O)CN=[N+]=[N-])C(C)C` [Compound 13, N-(6-azido-6-deoxy-D-galactosyl)-dolastatin 10]: the “cytotoxicity compared with 2 (monomethyldolastatin 10)” value is “equally or only slightly less cytotoxic”. Moreover, the pIC50 (Homo sapiens, SK-OV-3, 96 h) was above 9.00. As for “N-(6-O-propargyl-D-galactosyl)-MMAF [Compound 3]”, the pIC50 under setting [1] was 5.00 to 7.00.

`CC[C@H](C)[C@@H]([C@@H](CC(=O)N1CCC[C@H]1[C@H](OC)[C@@H](C)C(=O)N[C@@H](Cc1ccccc1)c1nccs1)OC)N(C)C(=O)[C@@H](NC(=O)[C@@H](NC)C(C)C)C(C)C` [Compound 2, monomethyldolastatin 10, reference compound] (H-[NMeV]V[Dil][Dolaproine]-Doe) gave a pIC50 under setting [1] above 9.00. For `CCC(C)C(C(CC(=O)N1CCCC1C(OC)C(C)C(=O)NC(Cc1ccccc1)C(=O)O)OC)N(C)C(=O)C(NC(=O)C(C(C)C)N(C)CCC(O)C(O)C(O)CO)C(C)C` [Compound 5, N-(2-deoxy-D-glucosyl)-MMAF], the “cytotoxicity compared with 1 (MMAF)” value is “equally or only slightly less cytotoxic”. In addition, where the note is “Homo sapiens, SK-OV-3, 96 h”, the negative-log IC50 (pIC50) is 6.00. For N-glutaryl-MMAF [Compound 14b], the “cytotoxicity compared with 2 (monomethyldolastatin 10)” value is “equally or only slightly less cytotoxic”. This molecule had a negative logarithm of the IC50 (pIC50) under setting [1] of 6.00 to 7.00. For the molecule “N-(6-azido-6-deoxy-D-galactosyl)-MMAF [Compound 4]”, the negative logarithm of the IC50 (pIC50) under setting [1] is 6.00 to 7.00.

For `CCC(C)C(C(CC(=O)N1CCCC1C(OC)C(C)C(=O)NC(Cc1ccccc1)C(=O)O)OC)N(C)C(=O)C(NC(=O)C(C(C)C)N(C)CC(O)C(O)C(OC1OC(CO)C(O)C(OC2(C(=O)O)CC(O)C(NC(C)=O)C(C(O)C(O)CO)O2)C1O)C(O)CO)C(C)C` [Compound 11, N-{4-O-[3-O-(α-N-acetylneuraminyl)-β-D-galactopyranosyl]-D-glucosyl}-MMAF], the “cytotoxicity compared with 1 (MMAF)” value is “less cytotoxic”. This molecule gave a pIC50 (Homo sapiens, SK-OV-3, 96 h) below 5.00. Regarding `C#CCCN(C)C(C(=O)NC(C(=O)N(C)C(C(C)CC)C(CC(=O)N1CCCC1C(OC)C(C)C(=O)NC(Cc1ccccc1)C(=O)O)OC)C(C)C)C(C)C` (centres unmarked) [Compound 6, N-(3-butynyl)-MMAF], the “cytotoxicity compared with 1 (MMAF)” value is reported as “more cytotoxic”. Also, where the note is “Homo sapiens, SK-OV-3, 96 h”, the pIC50 was above 9.00.

On to `CCC(C)C(C(CC(=O)N1CCCC1C(OC)C(C)C(=O)NC(Cc1ccccc1)C(=O)O)OC)N(C)C(=O)C(NC(=O)C(C(C)C)N(C)CC(O)C(O)C(O)C(O)COC1OC(CO)C(O)C(O)C1O)C(C)C` [Compound 8, N-[6-O-(β-D-galactopyranosyl)-D-galactosyl]-MMAF], for which the “cytotoxicity compared with 1 (MMAF)” value is reported as “less cytotoxic”. This molecule also had a pIC50 (Homo sapiens, SK-OV-3, 96 h) of 5.00 to 6.00.
